IC50 data for 24 compounds are collected here from US10035801B2, “Pyrazolo compounds and uses thereof” (CONSTELLATION PHARMACEUTICALS, INC., priority 2013, dated 2018).

The target in this assay is T1, KDM5A (Homo sapiens, UniProt P29375).
T1 construct: Full length KDM5A enzyme was expressed and purified inhouse; made in house
Kind of assay: KDM5 enzyme assay, KDM5A HTRF (Example 463). The class given is biochemical. As to conditions: compounds of Examples 1-432; read-out: Example 463 Assay KDM5A HTRF IC50.

A word on the IC50: it is the midpoint of a concentration-inhibition curve.

Structures are written as SMILES.

T1 sequence (P29375 whole entry): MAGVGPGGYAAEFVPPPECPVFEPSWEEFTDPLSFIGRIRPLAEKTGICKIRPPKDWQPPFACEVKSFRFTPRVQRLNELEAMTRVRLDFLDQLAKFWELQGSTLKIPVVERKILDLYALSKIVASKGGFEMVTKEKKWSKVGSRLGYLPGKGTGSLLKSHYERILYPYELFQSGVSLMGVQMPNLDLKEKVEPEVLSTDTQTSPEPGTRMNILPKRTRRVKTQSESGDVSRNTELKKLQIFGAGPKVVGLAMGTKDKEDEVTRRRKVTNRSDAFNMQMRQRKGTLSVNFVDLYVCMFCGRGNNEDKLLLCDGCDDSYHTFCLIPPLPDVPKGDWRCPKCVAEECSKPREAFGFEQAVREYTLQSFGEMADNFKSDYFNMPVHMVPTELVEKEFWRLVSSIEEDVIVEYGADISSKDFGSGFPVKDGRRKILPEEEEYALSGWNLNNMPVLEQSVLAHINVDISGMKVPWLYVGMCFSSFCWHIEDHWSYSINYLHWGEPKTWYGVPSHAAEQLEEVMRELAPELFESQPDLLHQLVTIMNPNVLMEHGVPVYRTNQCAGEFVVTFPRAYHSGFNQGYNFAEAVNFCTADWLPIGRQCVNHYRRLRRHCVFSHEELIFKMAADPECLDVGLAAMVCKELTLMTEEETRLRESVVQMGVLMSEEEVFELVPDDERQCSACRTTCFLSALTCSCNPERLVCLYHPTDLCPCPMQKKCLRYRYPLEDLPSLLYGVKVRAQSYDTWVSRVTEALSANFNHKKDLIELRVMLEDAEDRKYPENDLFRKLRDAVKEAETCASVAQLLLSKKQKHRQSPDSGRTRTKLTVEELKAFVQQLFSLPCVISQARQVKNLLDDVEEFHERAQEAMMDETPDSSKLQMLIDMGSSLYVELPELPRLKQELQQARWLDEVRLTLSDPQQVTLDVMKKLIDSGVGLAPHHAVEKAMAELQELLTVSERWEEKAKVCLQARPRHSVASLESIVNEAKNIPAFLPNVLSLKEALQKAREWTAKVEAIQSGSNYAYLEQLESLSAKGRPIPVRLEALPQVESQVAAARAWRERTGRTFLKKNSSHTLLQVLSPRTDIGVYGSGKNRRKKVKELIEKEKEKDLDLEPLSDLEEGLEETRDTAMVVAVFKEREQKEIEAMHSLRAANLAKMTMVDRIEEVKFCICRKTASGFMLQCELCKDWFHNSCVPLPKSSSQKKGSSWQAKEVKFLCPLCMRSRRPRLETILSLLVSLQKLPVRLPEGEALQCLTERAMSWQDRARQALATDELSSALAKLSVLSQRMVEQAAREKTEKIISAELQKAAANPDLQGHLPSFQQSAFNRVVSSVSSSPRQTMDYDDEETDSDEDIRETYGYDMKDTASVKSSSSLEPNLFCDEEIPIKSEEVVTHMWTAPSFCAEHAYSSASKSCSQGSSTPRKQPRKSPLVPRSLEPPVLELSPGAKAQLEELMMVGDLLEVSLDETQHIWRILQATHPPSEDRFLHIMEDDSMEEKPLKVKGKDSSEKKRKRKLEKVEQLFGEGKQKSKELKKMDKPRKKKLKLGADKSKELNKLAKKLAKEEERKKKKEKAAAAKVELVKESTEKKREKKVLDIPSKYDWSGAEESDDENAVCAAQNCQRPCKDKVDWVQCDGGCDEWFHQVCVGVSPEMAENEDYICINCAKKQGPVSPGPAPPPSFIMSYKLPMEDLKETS

Consider `CC(C)c1c(-c2ccnn2C(C)C)[nH]c2c(C#N)cnn2c1=O` [Compound 415], for which the IC50 is 77 nM.

As to `CNC(=O)c1cc(-c2[nH]c3c(C#N)cnn3c(=O)c2C(C)C)cn1C(C)C` [Compound 416], the IC50 was found to be 48 nM.

Take `CC(C)c1c(-c2cc(C(=O)N(C)C)n(C(C)C)c2)[nH]c2c(C#N)cnn2c1=O` [Compound 417]: the IC50 turned out to be 31 nM.

Take `CC(C)c1c(-c2ccn(CCC3CC3)n2)[nH]c2c(C#N)cnn2c1=O` [Compound 418]: the IC50 amounted to 13 nM.

For `CC(C)c1c(-c2ccnn2CCC2CC2)[nH]c2c(C#N)cnn2c1=O` [Compound 419], the IC50 was found to be 88 nM.

`CCn1ccc(-c2[nH]c3c(C#N)cnn3c(=O)c2C(C)C)n1` [Compound 420]: the IC50 was determined as 23 nM.

Regarding `CCc1c(-c2cccc(N3CCCC3=O)c2)[nH]c2c(C#N)cnn2c1=O` [Compound 421], the IC50 is 19 nM.

Regarding `CCc1c(-c2cccc(N3CCC(C)(C)C3=O)c2)[nH]c2c(C#N)cnn2c1=O` [Compound 422], the IC50 was found to be 29 nM.

Take `CCc1c(-c2cccc(N3CCC(c4ccccc4)C3=O)c2)[nH]c2c(C#N)cnn2c1=O` (stereo not drawn) [Compound 423]: the IC50 was found to be 20 nM.

On to `CC(C)c1c(-c2cccc(N3CCC(c4ccccc4)C3=O)c2)[nH]c2c(C#N)cnn2c1=O` (stereo not drawn) [Compound 424], for which the IC50 was determined as 8 nM.

For `C=CCc1c(-c2cnn(C(C)C)c2)[nH]c2c(C#N)cnn2c1=O` [Compound 425], the IC50 was 16 nM.

For the compound `CCc1c(-c2cccc(/C=C/c3ccccc3)c2)[nH]c2c(C#N)cnn2c1=O` [Compound 426], the IC50 worked out at 23 nM.

For `CC(C)c1c(-c2cccc(-c3cccc(C#N)c3)c2)[nH]c2c(C#N)cnn2c1=O` [Compound 427], the 50% inhibitory concentration (IC50) is 39 nM.

As to `CC(C)c1c(-c2cccc(-c3cccc(NS(C)(=O)=O)c3)c2)[nH]c2c(C#N)cnn2c1=O` [Compound 428], the IC50 worked out at 14 nM.

For the compound `CC(C)c1c(-c2cccc(-c3ccc(NS(C)(=O)=O)cc3)c2)[nH]c2c(C#N)cnn2c1=O` [Compound 429], the IC50 came out at 27 nM.

Regarding `CNS(=O)(=O)c1ccc(-c2cccc(-c3[nH]c4c(C#N)cnn4c(=O)c3C(C)C)c2)cc1` [Compound 430], the IC50 was found to be 32 nM.

Consider `CC(C)n1cc(-c2[nH]c3c(C#N)cnn3c(=O)c2C2CCC2)cn1` [Compound 431], for which the IC50 turned out to be 21 nM.

Turning to `CC(C)n1cc(-c2[nH]c3c(C#N)cnn3c(=O)c2C2(C)CCC2)cn1` [Compound 432], the IC50 turned out to be 56 nM.

In the case of `CC(C)c1c(Cl)[nH]c2c(C#N)cnn2c1=O` [Example 1, 5-chloro-6-isopropyl-7-oxo-4,7-dihydropyrazolo[1,5-a]pyrimidine-3-carbonitrile], the IC50 came to 4.3 nM.

Turning to `CCc1c(Cl)[nH]c2c(C#N)cnn2c1=O` [Example 2, 5-chloro-6-ethyl-7-oxo-4,7-dihydropyrazolo[1,5-a]pyrimidine-3-carbonitrile], the half-inhibitory concentration (IC50) came out at 3 nM.

In the case of `CC(C)c1c(-c2ccoc2)[nH]c2c(C#N)cnn2c1=O` [Example 3, 5-(furan-3-yl)-6-isopropyl-7-oxo-4,7-dihydropyrazolo[1,5-a]pyrimidine-3-carbonitrile], the 50% inhibitory concentration (IC50) turned out to be 3.8 nM.

On to `CC(C)c1c(-c2ccoc2)n(C)c2c(C#N)cnn2c1=O` [Example 4, 5-(furan-3-yl)-6-isopropyl-4-methyl-7-oxo-4,7-dihydropyrazolo[1,5-a]pyrimidine-3-carbonitrile], for which the IC50 came to 65 nM.

For `CC(C)c1c(-c2cn[nH]c2)[nH]c2c(C#N)cnn2c1=O` [Example 5, 6-Isopropyl-7-oxo-5-(1H-pyrazol-4-yl)-4,7-dihydropyrazolo[1,5-a]pyrimidine-3-carbonitrile], the IC50 is 5.5 nM.

On to `CC(C)c1c(-c2cnn(CC3CC3)c2)[nH]c2c(C#N)cnn2c1=O` [Example 6, 5-(1-(Cyclopropylmethyl)-1H-pyrazol-4-yl)-6-isopropyl-7-oxo-4,7-dihydropyrazolo[1,5-a]pyrimidine-3-carbonitrile], for which the IC50 came to 13 nM.
